Results from ChEMBL document CHEMBL1149402, “New potential antibacterials: a synthetic route to N-aryloxazolidinone/3-aryltetrahydroisoquinoline hybrids” (2006).

Tested on: Staphylococcus aureus
Assay: Antibacterial activity against methicillin-susceptible Staphylococcus aureus ATCC 29213
Format: functional

- MIC: > 64 µg/mL
SMILES: Br.CC(=O)NC[C@H]1CN(c2ccc(C3Cc4cc(O)c(O)cc4CN3)cc2)C(=O)O1 (stereo partly specified)
